Patent publication US20250295579A1, “SKIN CARE COMPOSITION AND USES THEREOF” (S-BIOMEDIC NV, priority 2022, published 2025)

What was measured:
Experiment in all cases: Influence of cosmetic ingredients on C. acnes growth in 96-well plates (OD600)
Assay type in all cases: cell-based, Cutibacterium acnes
C. acnes A1 strain = conditions: PBS 1% w/v peptone
Experimental: (§1) One day before the experiment: starter bacterial cultures of C. acnes A1, D1, H1 and K8 strains from the working cell bank (WCB) glycerol stocks were prepared in a final volume of 15 ml. The C. acnes strains were isolated from healthy volunteers and they were characterized for their growth, 16S and SLST sequence to identify the specific strain. The volumes of WCB were 1 ml for A1 and 300 μl for D1, H1, and K8. The cultures were incubated overnight at 37° C.
(§2) At the day of the experiment, after 24 h incubation, inoculums were taken out of the incubator and homogenized with vortex. 50 μl aliquots were separated from each inoculum to 1.5 ml tubes and their OD600 was measured by Nanodrop.
(§3) Each aliquot was measured twice and its OD600 was determined by calculating the mean value. The tubes were centrifuged (3000 rcf, 5 min) and the supernatant was discarded. The pellet was resuspended in 15 ml of PBS (phosphate buffered saline). This washing, consisting of centrifugation, discarding the supernatant, and resuspension was repeated. Then, the OD600 was adjusted in PBS to 2 for each strain. Small aliquots were separated and read on Nanodrop again at the end of this process to ensure a starting OD600 of 2 (+/−0.2) in the bacterial cultures.
(§4) All the ingredients were tested in either of the two different media: PBS 3% w/v Glucose and PBS 1% w/v Peptone. Additionally, all strains were grown on PBS and PBS 3% w/v Glucose 1% w/v Peptone, as negative and positive control, respectively.
(§5) Medium was prepared at 2.5×concentration and then diluted to 1× when mixed with the ingredient and inoculum into the test plates.
(§6) PBS 7.5% w/v Glucose media was filter sterilized (Millipore pump). 50% w/v Peptone diluted in ultrapure water (Milli-Q) was prepared, autoclaved and then diluted to 2.5% w/v with PBS. PBS 7.5% w/v Glucose 2.5% w/v peptone media was prepared diluting 50% Peptone on filtered PBS 7.125% Glucose.
(§7) The range of concentrations tested was based on the concentration that the chosen compound could have in the final cosmetic product. Three different concentrations were tested for each ingredient: maximum concentration, minimum concentration and a concentration in the middle between the maximum and minimum concentration (half of the highest one).
(§8) All compounds were prepared on milliQ water. 50 ml of stocks for each ingredient were prepared at double of the highest concentration to be tested. After solubilization, the ingredients were filter sterilized.
(§9) The experiment was performed in transparent 96-well plates. Each one of them contained one media (either peptone or glucose), one strain inoculum and either of the ingredients. The final volume in each well was 200 μl: 100 μl of 2× ingredient, 80 μl of 2.5× medium and 20 μl of bacterial inoculum of OD600. Triplicates were done for every condition. Controls without ingredient and without bacteria were included in this experiment to detect possible contaminations.
(§10) One 96-well 2 ml deep well-plate was used for each batch. The double concentrated ingredients were distributed manually on the deep well plate and the corresponding serial dilutions were performed on PBS with an automatic multichannel pipette. Then, the content of each deep well plate was distributed to 8 different 96-standard well plate with Zephyr SPE workstation (automated liquid handler).
(§11) 100 μl of ingredient per well were transferred to each plate. The zephyr program contained a resuspension step on the deep well plate and a step in which the tips leaned on the sides of each well of the plates to ensure the accurate volume disposal.
(§12) Once the 100 μl of ingredient were transferred to each plate, 80 μl of either Glucose or Peptone medium was poured into the plate with Multidrop Combi Plate dispenser (Thermo Fisher). The multidrop was also used to dispense 20 μl per well of the corresponding strain inoculum, which was previously prepared as described in the previous part. […]

C. acnes K8 strain = test system: C. acnes K8 strain
Experimental: as §1, §2, §3, §4, §5, §6, §7, §8, §9, §10, §11, §12

C. acnes D1 strain = test system: C. acnes D1 strain
Experimental: as §1, §2, §3, §4, §5, §6, §7, §8, §9, §10, §11, §12

C. acnes H1 strain = test system: C. acnes H1 strain
Experimental: as §1, §2, §3, §4, §5, §6, §7, §8, §9, §10, §11, §12

[1] = 1% v/v glycerol, PBS 1% w/v peptone, FIG. 1
[2] = 3% w/v sodium lactate, PBS 1% w/v peptone, FIG. 3
[3] = 1% w/v sorbitol, PBS 1% w/v peptone, FIG. 2
[4] = 0.075% w/v sodium cetaryl sulphate, PBS 3% w/v glucose, FIG. 5

OCC(O)CO [Glycerol]
improvement of growth compared to the peptone control condition (C. acnes A1 strain; 1% v/v glycerol, FIG. 1): four
improvement of growth compared to the peptone control condition (C. acnes K8 strain; [1]): four
improvement of growth compared to the peptone control condition (C. acnes D1 strain; [1]): four
improvement of growth compared to the peptone control condition (C. acnes H1 strain; [1]): four

CC(O)C(=O)[O-].[Na+] (stereo not drawn) [Sodium lactate, sodium lactate]
effect on growth (C. acnes A1 strain; 3% w/v sodium lactate, FIG. 3): improved the growth
effect on growth (C. acnes K8 strain; [2]): improved the growth of the four tested strains, with a higher effect on the strain K8
effect on growth (C. acnes D1 strain; [2]): improved the growth
effect on growth (C. acnes H1 strain; [2]): improved the growth

OC[C@@H](O)[C@@H](O)[C@H](O)[C@@H](O)CO [Sorbitol]
effect on growth (C. acnes A1 strain; 1% w/v sorbitol, FIG. 2): improved the growth
effect on growth (C. acnes K8 strain; [3]): improved the growth
effect on growth (C. acnes D1 strain; [3]): improved the growth
growth improved by a factor (C. acnes H1 strain; [3]): 4.5

sodium cetearyl sulphate [Sodium cetaryl sulphate]
effect on growth (C. acnes K8 strain; [4]): Negative effect
effect on growth (C. acnes D1 strain; [4]): selectively and significantly improved the growth
effect on growth (C. acnes H1 strain; [4]): selectively and significantly improved the growth
